Columns and labels:
[1] = Binding studies of sensor with Fe2+ (stoichiometry, affinity, reversibility); conditions: for binding constant: 1:1 sensor-Fe^2+ complex, H2O/THF pH 7.3 v/v 1:1
Method: The binding stoichiometry between the sensor Rh6GD and Fe^2+ was investigated by absorption and fluorescence titrations first. The sensor, Rh6GD has an absorption band at ˜420 nm (FIG. 26) which is due to the transition from S0 to S1 states (A. Chakraborty, et al., N. Chem. Phys., 2006, 324, 733) of the dimethylaminocinnamaldehyde moiety. […] Similar titrations were performed and were monitored by fluorescence spectroscopy.
The binding constant was estimated by using the absorption titration results. The equations below were used to calculate the binding constant for 2:1 complexes following a reported procedure (M. Guo, et al., Dalton Trans., 2007, 102, 4951). S+2L ? SL2 (1) The complex apparent binding constant is given by
[formula] Fc is the fraction of L that formed a complex; the subscripts e and o stand for equilibrium and initial concentrations, respectively. Au, Am, and Ac are the absorbances of solutions of L (before any Fe^2+ was added), during the titration, and at saturation, respectively. The concentration of free Fe^2+ at equilibrium, [S]e, is found with the following identity: [S]e=[S]o−[SL2]e[=S]o−Fc[L]o (4) Finally, the integrated apparent binding constant equation is shown in equation (5).
Reversibility experiments were carried out by adding the metal chelator EDTA to the Rh6GD-Fe^2+ complex in H2O/THF (pH 7.3, v/v 4:1). […]
Besides metal-selectivity, the binding constant, which describes the strength of binding between the sensor and metal cations, is also an important factor to be considered in bio-imaging. […] Job's method was applied to study the binding stoichiometry between Rh101D and Fe^2+ and monitored by the absorbance at 585 nm.
The binding constants were estimated by using the fluorescence titration results (FIG. 38). […]
The binding stoichiometry and the affinity between the sensor NIRh-Fret and Fe^2+ were investigated by UV-vis absorption titration. […] The binding constant for the formation of this complex was determined to be 2.9×10^6 M^−1 using a reported procedure (C. A. Perez, et al., J. Inorg. Biochem., 2009, 103, 326). […]

[2] = Solubility of sensor noted in NMR studies; type: physicochemical; conditions: NMR sample solution
From the text: The binding site of Fe^2+ on Rh101D was investigated by 2D NMR. […] COSY NMR spectra are of sufficient resolution for the assignment of the peaks in the aromatic region (FIG. 44). After adding Fe^2+ to Rh101D, all the ^1H NMR signals were broadened.
In order to probe the binding site of Fe^2+ on the NIRh-Fret sensor, 1D and 2D ^1H NMR of the sensor NIRh-Fret was investigated first. […] The assignment of the ^1H NMR peaks was based on 2D ^1H-^1H COSY spectra.

[3] = Effect of pH on fluorescence of sensor and its Fe complex; type: physicochemical; conditions: pH adjusted with HCl/NaOH
[4] = tested on: cells in the culture experiments; assay: Cell permeability and toxicity in the culture experiments; type: cell-based; conditions: for cell permeability: live cells in culture

| binding constant [1] [M⁻¹] | solubility [2] | pH range over which sensor (and Fe complex) fluorescence is stable / working pH range [3] | apparent binding constant ([1]; 2:1 sensor-Fe^2+ complex, absorption titration, H2O/THF pH 7.3 v/v 4:1) | pH range over which sensor (and Fe complex) fluorescence is stable / working pH range ([3]; listed as Rh-Pk) | Compound | cell permeability [4] | toxicity for cells ([4]; culture experiments) |
| --- | --- | --- | --- | --- | --- | --- | --- |
| 2.9e+06 | limited solubility | ≥ 4.5 |  |  | CCN(CC)c1ccc2c(c1)OC1=C(CCC/C1=C\C=C1\N(C)c3ccccc3C1(C)C)C21c2ccccc2C(=O)N1/N=C\C=C\c1ccc(N(C)C)cc1 (stereo not shown) [NIRh-Fret, (E)-6′-(diethylamino)-2-(((1Z,2E)-3-(4-(dimethylamino)phenyl)allylidene)amino)-4′-(2-((E)-1,3,3-trimethylindolin-2-ylidene)ethylidene)-1′,2′,3′,4′-tetrahydrospiro[isoindoline-1,9′-xanthen]-3-one] |  |  |
|  |  | 9.3 to 4.5 | 1.8×10^11 M^−2 |  | CCNc1cc2c(cc1C)C1(c3cc(C)c(NCC)cc3O2)c2ccccc2C(=O)N1/N=C/C=C/c1ccc(N(C)C)cc1 [Rh6GD, 2-(((1E,2E)-3-(4-(dimethylamino)phenyl)allylidene)amino)-3′,6′-bis(ethylamino)-2′,7′-dimethylspiro[isoindoline-1,9′-xanthen]-3-one] |  |  |
| 120000 | limited solubility | 9.5 to 4.5 |  |  | CN(C)c1ccc(/C=C/C=N/N2C(=O)c3ccccc3C23c2cc4c5c(c2Oc2c3cc3c6c2CCCN6CCC3)CCCN5CCC4)cc1 [Rh101D] | cell permeable |  |
|  |  | 4 to 9 |  | 4-9 | CCN(CC)c1ccc2c(c1)Oc1cc(N(CC)CC)ccc1C21c2ccccc2C(=O)N1CC/N=C(\C)c1cccc(C(C)=O)n1 [Rh-PK, (E)-2-(2-((1-(6-acetylpyridin-2-yl)ethylidene)amino)ethyl)-3′,6′-bis(diethylamino)spiro[isoindoline-1,9′-xanthen]-3-one] | excellent cell permeability | non-toxic |

Reference: patent publication US11685741B2, “Fluorescent probes” (University of Massachusetts, priority 2017, dated 2023)
